Results as given in PMC9821961, “Ring-Modified Histidine-Containing Cationic Short Peptides Exhibit Anticryptococcal Activity by Cellular Disruption” (Molecules, 2022).
≈ marks a conversion by molar mass, not a printed value. Where two headings read alike, the source gives them in different places.

Legend:
C. neoformans = test: microbe, parasite or virus in culture; type: cell-based, Cryptococcus neoformans
Source text: (§1) Microbial strains: Microbial strains were procured from National Culture Collection of Pathogenic Fungi (NCCPF) at the Postgraduate Institute of Medical Education & Research (PGIMER), Chandigarh and Microbial Type Culture Collection and Gene bank (MTCC) at the Institute of Microbial Technology (IMTECH), Chandigarh, India. Peptides were screened against five different strains of fungi: viz. Candida albicans (NCCPF400034), Candida glabrata (MTCC 3019), Candida parapsilosis (NCCPF 440002), Candida krusei (NCCPF 440002) and Cryptococcus neoformans (NCCPF250316), and five strains of bacteria: viz. Escherichia coli (MTCC 2961), Staphylococcus aureus (MTCC 3160), Enterococcus faecalis (MTCC 439), Streptococcus pyogenes (MTCC 442) and Pseudomonas aeruginosa (MTCC 3542).
(§2) Growth media: Antifungal susceptibility testing was carried out using standard broth microdilution assays as per the Clinical and Laboratory Standards Institute (CLSI) guidelines for fungi. RPMI 1640 (Sigma), yeast extract, peptone and dextrose (YPED, Himedia) were used as the incubation broths. The cells were diluted to a cell density of 10^3 colony forming unit (CFU/mL) and incubated at 30 °C for 48 h. Furthermore, Muller Hinton (Himedia) media was utilized for bacterial strains and antibacterial activity was evaluated per CLSI guidelines for bacteria. Bacterial cells were diluted to a cell density of 10^5 CFU/mL and incubated at 37 °C for 24 h. Amphotericin B (Himedia, India) and rifampicin (Himedia, India) were used as standard drugs for the evaluation of activity against all the fungal and bacterial strains, respectively.
(§3) The stock solutions of peptides (2 mg/mL) were prepared in DMSO. Specific amounts of peptide from stock solution were added to a 96-well microtiter plate containing 100 μL of growth media and then serially diluted two-fold. A further 100 μL of growth media containing microbial cells were added to each well and incubated at 30–37 °C for 24–48 h. The optical density (OD) was measured at 600 nm using a BioStack Ready (BioTek Instruments, Winooski, VT, USA) microplate reader to analyze microbial growth inhibition, and IC50 and MIC values were calculated. To visualize the growth and inhibition pattern, a solution of 3-(4,5-dimethylthiazol-2-yl)-2,5-diphenyltetrazolium bromide (MTT) in water was added to the plate and incubated for 2–3 h. MTT reacts with the mitochondrial dehydrogenases, which are present only in a viable cell, to give blue colored formazan crystals. Therefore, a darker color indicates a high number of viable cells; however, non-viable cells appear pale or colorless.

C. albicans = test: microbe, parasite or virus in culture; type: cell-based, Candida albicans; settings: 48 h
Source text: as §1, §2, §3

C. glabrata = test: microbe, parasite or virus in culture; type: cell-based, Candida glabrata; settings: 48 h
Source text: as §1, §2, §3

C. parapsilosis = test: microbe, parasite or virus in culture; type: cell-based, Candida parapsilosis; settings: 48 h
Source text: as §1, §2, §3

C. krusei = test: microbe, parasite or virus in culture; type: cell-based, Candida krusei; settings: 48 h
Source text: as §1, §2, §3

C. neoformans cells = test: Time kill assay; settings: negative-control peptides, compared with untreated cells, 24 h
E. faecalis = test: microbe, parasite or virus in culture; type: cell-based, Enterococcus faecalis
S. aureus = test: microbe, parasite or virus in culture; type: cell-based, Staphylococcus aureus
Source text: as §1
as §2, with “Bacterial cells were diluted to a cell density of 10^5 CFU/mL and incubated at 37 °C for 24 h.” left out
as §3

S. pyogens = test: microbe, parasite or virus in culture; type: cell-based, Streptococcus pyogenes
E. coli = test: microbe, parasite or virus in culture; type: cell-based, Escherichia coli
Source text: as §1
as §2, with “Bacterial cells were diluted to a cell density of 10^5 CFU/mL and incubated at 37 °C for 24 h.” left out
as §3

P. aeruginosa = test: microbe, parasite or virus in culture; type: cell-based, Pseudomonas aeruginosa

Row | SMILES | IC50 (C. neoformans; 48 h) [µg/mL] | MIC (C. neoformans; 48 h) [µg/mL] | IC50 (C. albicans) [µg/mL] | MIC (C. albicans) [µg/mL] | IC50 (C. glabrata) [µg/mL] | MIC (C. glabrata) [µg/mL] | IC50 (C. parapsilosis) [µg/mL] | MIC (C. parapsilosis) [µg/mL] | IC50 (C. krusei) [µg/mL] | MIC (C. krusei) [µg/mL] | IC50 (E. faecalis; 48 h) [µg/mL] | MIC (E. faecalis; 48 h) [µg/mL] | IC50 (S. aureus; 48 h) [µg/mL] | MIC (S. aureus; 48 h) [µg/mL] | IC50 (S. pyogens; 48 h) [µg/mL] | MIC (S. pyogens; 48 h) [µg/mL] | IC50 (E. coli; 48 h) [µg/mL] | MIC (E. coli; 48 h) [µg/mL] | IC50 (P. aeruginosa; 48 h) [µg/mL] | MIC (P. aeruginosa; 48 h) [µg/mL] | also measured
1 | COC(=O)[C@H](Cc1ncn(Cc2cc(C(C)(C)C)cc(C(C)(C)C)c2)c1I)NC(=O)[C@H](Cc1c[nH]c2ccccc12)NC(=O)OC(C)(C)C [9d] | >35.2 | >64.0 | >35.2 | >64.0 | >35.2 | >64.0 | >35.2 | >64.0 | >35.2 | >64.0 |  |  |  |  |  |  |  |  |  |  | Growth inhibition in time-kill profile (C. neoformans cells): did not show any growth inhibition
2 | COC(=O)[C@H](Cc1ncn(Cc2ccc(C(C)(C)C)cc2)c1I)NC(=O)[C@@H](N)Cc1c[nH]c2ccccc12 [10b] | 5.15 (≈ 8.21 µM) |  | >35.2 | >64.0 | >35.2 | >64.0 | >35.2 | >64.0 | >35.2 | >64.0 | >35.2 | >64.0 | 35.2 (≈ 56.1 µM) | 64.0 (≈ 102 µM) | >35.2 | >64.0 | 35.2 (≈ 56.1 µM) | 64.0 (≈ 102 µM) | >35.2 | >64.0 | 
3 | COC(=O)[C@H](Cc1ncn(Cc2ccc(C(C)C)cc2)c1I)NC(=O)[C@@H](N)Cc1c[nH]c2ccccc12 [10c] | 8.81 (≈ 14.4 µM) | 16.02 (≈ 26.1 µM) | >35.2 | >64.0 | >35.2 | >64.0 | >35.2 | >64.0 | >35.2 | >64.0 | >35.2 | >64.0 | >35.2 | >64.0 | >35.2 | >64.0 | >35.2 | >64.0 | >35.2 | >64.0 | 
4 | COC(=O)[C@H](Cc1ncn(Cc2cccc(C(F)(F)F)c2)c1I)NC(=O)[C@@H](N)Cc1c[nH]c2ccccc12 [10e] | 4.87 (≈ 7.62 µM) | 8.86 (≈ 13.9 µM) | >35.2 | >64.0 | >35.2 | >64.0 | >35.2 | >64.0 | >35.2 | >64.0 | >35.2 | >64.0 | >35.2 | >64.0 | >35.2 | >64.0 | >35.2 | >64.0 | >35.2 | >64.0 | 
5 | COC(=O)[C@H](Cc1ncn(Cc2ccc(F)c(F)c2)c1I)NC(=O)[C@@H](N)Cc1c[nH]c2ccccc12 [10i] | 10.28 (≈ 16.9 µM) |  | >35.2 | >64.0 | >35.2 | >64.0 | >35.2 | >64.0 | >35.2 | >64.0 |  |  |  |  |  |  |  |  |  |  | MIC (C. neoformans; C. neoformans, lowest test concentration with no detectable growth): 18.7 µg/mL (≈ 30.8 µM)
6 | COC(=O)[C@H](Cc1ncn(Cc2cc(F)cc(F)c2)c1I)NC(=O)[C@@H](N)Cc1c[nH]c2ccccc12 [10j] | 6.09 (≈ 10 µM) | 11.08 (≈ 18.2 µM) | >35.2 | >64.0 | >35.2 | >64.0 | >35.2 | >64.0 | >35.2 | >64.0 |  |  |  |  |  |  |  |  |  |  | 
7 | COC(=O)[C@H](Cc1ncn(Cc2cccc(F)c2)c1I)NC(=O)[C@@H](N)Cc1c[nH]c2ccccc12 [10k] | 2.78 (≈ 4.72 µM) | 4.64 (≈ 7.87 µM) | >35.2 | >64.0 | >35.2 | >64.0 | >35.2 | >64.0 | >35.2 | >64.0 | >35.2 | >64.0 | >35.2 | >64.0 | >35.2 | >64.0 | >35.2 | >64.0 | >35.2 | >64.0 | 
8 | COC(=O)[C@H](Cc1ncn(Cc2cccc(Cl)c2)c1I)NC(=O)[C@@H](N)Cc1c[nH]c2ccccc12 [10l] |  | 32.11 (≈ 53 µM) | >35.2 | >64.0 | >35.2 | >64.0 | >35.2 | >64.0 | >35.2 | >64.0 | >35.2 | >64.0 | >35.2 | >64.0 | >35.2 | >64.0 | >35.2 | >64.0 | >35.2 | >64.0 | 
9 | COC(=O)[C@H](Cc1ncn(Cc2cccc(Br)c2)c1I)NC(=O)[C@@H](N)Cc1c[nH]c2ccccc12 [10m] | 9.23 (≈ 14.2 µM) | 16.79 (≈ 25.8 µM) | >35.2 | >64.0 | >35.2 | >64.0 | >35.2 | >64.0 | >35.2 | >64.0 |  |  |  |  |  |  |  |  |  |  | 
10 | COC(=O)[C@H](Cc1ncn(Cc2cccc(I)c2)c1I)NC(=O)[C@@H](N)Cc1c[nH]c2ccccc12 [10n, Trp-His[1-(3-iodobenzyl)-5-iodo]-OMe] |  | 32.05 (≈ 46 µM) | >35.2 | >64.0 | >35.2 | >64.0 | >35.2 | >64.0 | >35.2 | >64.0 | >35.2 | >64.0 | >35.2 | >64.0 | >35.2 | >64.0 | >35.2 | >64.0 | >35.2 | >64.0 | 
11 | CO[C@H]1/C=C/O[C@@]2(C)Oc3c(C)c(O)c4c(O)c(c(/C=N/N5CCN(C)CC5)c(O)c4c3C2=O)NC(=O)/C(C)=C\C=C\[C@H](C)[C@H](O)[C@@H](C)[C@@H](O)[C@@H](C)[C@H](OC(C)=O)[C@@H]1C [Rifampicin, reference compound] |  |  |  |  |  |  |  |  |  |  |  |  |  |  |  |  |  |  |  |  | IC50 (E. faecalis; Enterococcus faecalis, E. faecalis, read-out: IC50): 1 µg/mL (≈ 1.22 µM); MIC (E. faecalis; Enterococcus faecalis, E. faecalis, read-out: MIC): 2 µg/mL (≈ 2.43 µM); IC50 (S. aureus; Staphylococcus aureus): 2 µg/mL (≈ 2.43 µM); MIC (S. aureus; Staphylococcus aureus): 4 µg/mL (≈ 4.86 µM); IC50 (S. pyogens; Streptococcus pyogenes, S. pyogens, read-out: IC50): 1 µg/mL (≈ 1.22 µM); MIC (S. pyogens; Streptococcus pyogenes, S. pyogens, read-out: MIC): 2 µg/mL (≈ 2.43 µM); IC50 (E. coli; Escherichia coli): 1 µg/mL (≈ 1.22 µM); MIC (E. coli; Escherichia coli): 2 µg/mL (≈ 2.43 µM); IC50 (P. aeruginosa; Pseudomonas aeruginosa, P. aeruginosa, read-out: IC50): 16 µg/mL (≈ 19.4 µM); MIC (P. aeruginosa; Pseudomonas aeruginosa, P. aeruginosa, read-out: MIC): 32 µg/mL (≈ 38.9 µM)
